What all share (format): functional
The subject of test [1] is Pseudomonas aeruginosa. Description: Antimicrobial against Pseudomonas aeruginosa 46396 harboring katA allele by Etest method.
Test [2] concerns Pseudomonas aeruginosa. Briefly: Antimicrobial against Pseudomonas aeruginosa 40198 harboring nirJ allele by Etest method.
Test [3] relates to Pseudomonas aeruginosa. Briefly: Antimicrobial against Pseudomonas aeruginosa 3894 by Etest method.
Test [4] relates to Pseudomonas aeruginosa. Description: Antimicrobial against Pseudomonas aeruginosa 3434 by Etest method.
For test [5], the system named is Pseudomonas aeruginosa. Briefly: Antimicrobial against Pseudomonas aeruginosa 8564 harboring pyrX allele by Etest method.
For test [6], the system named is Pseudomonas aeruginosa. Description: Antimicrobial against Pseudomonas aeruginosa 32455 harboring phzS allele by Etest method.
Test [7] deals with Pseudomonas aeruginosa. Briefly: Antimicrobial against Pseudomonas aeruginosa 312 harboring PBPP allele by Etest method.
Test [8] has as its system Pseudomonas aeruginosa. Description: Antimicrobial against Pseudomonas aeruginosa PAO1 by Etest method.
For test [9], the system named is Pseudomonas aeruginosa. Briefly: Antimicrobial against Pseudomonas aeruginosa 1494 harboring phnA allele by Etest method.
For test [10], the system named is Pseudomonas aeruginosa. Description: Antimicrobial against Pseudomonas aeruginosa 8666 by Etest method.
For test [11], the system named is Pseudomonas aeruginosa. Description: Antimicrobial against Pseudomonas aeruginosa 3465 harboring tsaA allele by Etest method.
For test [12], the system named is Pseudomonas aeruginosa. Briefly: Antimicrobial against Pseudomonas aeruginosa 9256 harboring ybhO allele by Etest method.
Test [13] deals with Pseudomonas aeruginosa. Briefly: Antimicrobial against Pseudomonas aeruginosa 3208 harboring phzM allele by Etest method.
Test [14] has as its system Pseudomonas aeruginosa. Briefly: Antimicrobial against Pseudomonas aeruginosa 30848 harboring phoU allele by Etest method.
The subject of test [15] is Pseudomonas aeruginosa. Description: Antimicrobial against Pseudomonas aeruginosa 33410 harboring phoU allele by Etest method.
The subject of test [16] is Pseudomonas aeruginosa. Briefly: Antimicrobial against Pseudomonas aeruginosa 46396 harboring katA allele by broth dilution method.
Test [17] relates to Pseudomonas aeruginosa. Briefly: Antimicrobial against Pseudomonas aeruginosa 3894 by broth dilution method.
The subject of test [18] is Pseudomonas aeruginosa. Briefly: Antimicrobial against Pseudomonas aeruginosa 3434 by broth dilution method.
Test [19] concerns Pseudomonas aeruginosa. Description: Antimicrobial against Pseudomonas aeruginosa 30848 harboring phoU allele by broth dilution method.
For test [20], the system named is Pseudomonas aeruginosa. Briefly: Antimicrobial against Pseudomonas aeruginosa 40198 harboring nirJ allele by broth dilution method.
Test [21] has as its system Pseudomonas aeruginosa. Briefly: Antimicrobial against Pseudomonas aeruginosa 3208 harboring phzM allele by broth dilution method.
The subject of test [22] is Pseudomonas aeruginosa. Description: Antimicrobial against Pseudomonas aeruginosa 9256 harboring ybhO allele by broth dilution method.
Test [23] has as its system Pseudomonas aeruginosa. Briefly: Antimicrobial against Pseudomonas aeruginosa 312 harboring PBPP allele by broth dilution method.
Test [24] deals with Pseudomonas aeruginosa. Briefly: Antimicrobial against Pseudomonas aeruginosa 1494 harboring phnA allele by broth dilution method.
For test [25], the system named is Pseudomonas aeruginosa. Description: Antimicrobial against Pseudomonas aeruginosa 8564 harboring pyrX allele by broth dilution method.
Test [26] deals with Pseudomonas aeruginosa. Briefly: Antimicrobial against Pseudomonas aeruginosa PAO1 by broth dilution method.
Test [27] has as its system Pseudomonas aeruginosa. Description: Antimicrobial against Pseudomonas aeruginosa 33410 harboring phoU allele by broth dilution method.
The test system of test [28] is Pseudomonas aeruginosa. Briefly: Antimicrobial against Pseudomonas aeruginosa 32455 harboring phzS allele by broth dilution method.
In test [29] the test system is Pseudomonas aeruginosa. Description: Antimicrobial against Pseudomonas aeruginosa 3465 harboring tsaA allele by broth dilution method.
Test [30] deals with Pseudomonas aeruginosa. Description: Antimicrobial against Pseudomonas aeruginosa 8666 by broth dilution method.

Each structure is given as a SMILES string. Converted amounts (≈) assume the structure as drawn.

In the case of `CC(C)(O/N=C(\C(=O)N[C@@H]1C(=O)N2C(C(=O)[O-])=C(C[n+]3ccccc3)CS[C@H]12)c1csc(N)n1)C(=O)O` [CEFTAZIDIME], the MIC in the test on Pseudomonas aeruginosa [1] came to 2 µg/mL (≈ 3.66 µM); against Pseudomonas aeruginosa [2], 1.5 µg/mL (≈ 2.74 µM); with Pseudomonas aeruginosa [3], 2.5 µg/mL (≈ 4.57 µM); with Pseudomonas aeruginosa [4], 2.5 µg/mL (≈ 4.57 µM); against Pseudomonas aeruginosa [5] it was 1.5 µg/mL (≈ 2.74 µM); against Pseudomonas aeruginosa [6] it was 2 µg/mL (≈ 3.66 µM). In addition, the minimal inhibitory concentration (MIC) stood at 2 µg/mL (≈ 3.66 µM) in the test with Pseudomonas aeruginosa [7]; 2 µg/mL (≈ 3.66 µM) in the test with Pseudomonas aeruginosa [8]; 1.5 µg/mL (≈ 2.74 µM) against Pseudomonas aeruginosa [9]; 2 µg/mL (≈ 3.66 µM) with Pseudomonas aeruginosa [10]; 2 µg/mL (≈ 3.66 µM) in the test with Pseudomonas aeruginosa [11]; 2 µg/mL (≈ 3.66 µM) in the test on Pseudomonas aeruginosa [12]. The MIC came out at 2 µg/mL (≈ 3.66 µM) against Pseudomonas aeruginosa [13], 3 µg/mL (≈ 5.49 µM) with Pseudomonas aeruginosa [14] and 1.5 µg/mL (≈ 2.74 µM) against Pseudomonas aeruginosa [15].
`O=C(N[C@H](CO)[C@H](O)c1ccc([N+](=O)[O-])cc1)C(Cl)Cl` [CHLORAMPHENICOL]: the MIC in the test on Pseudomonas aeruginosa [16] worked out at 12.5 µg/mL (≈ 38.7 µM); with Pseudomonas aeruginosa [17] it was 12.5 µg/mL (≈ 38.7 µM); against Pseudomonas aeruginosa [18], 25 µg/mL (≈ 77.4 µM); against Pseudomonas aeruginosa [19] it was 200 µg/mL (≈ 619 µM); with Pseudomonas aeruginosa [20] it was 12.5 µg/mL (≈ 38.7 µM); against Pseudomonas aeruginosa [21], 12.5 µg/mL (≈ 38.7 µM). Besides, the MIC came out at 12.5 µg/mL (≈ 38.7 µM) with Pseudomonas aeruginosa [22]; 12.5 µg/mL (≈ 38.7 µM) against Pseudomonas aeruginosa [23]; 12.5 µg/mL (≈ 38.7 µM) against Pseudomonas aeruginosa [24]; 12.5 µg/mL (≈ 38.7 µM) against Pseudomonas aeruginosa [25]; 800 µg/mL (≈ 2480 µM) with Pseudomonas aeruginosa [26]; 12.5 µg/mL (≈ 38.7 µM) with Pseudomonas aeruginosa [27]. In addition, the MIC in the test on Pseudomonas aeruginosa [28], in the test with Pseudomonas aeruginosa [29] and in the test with Pseudomonas aeruginosa [30] was 12.5 µg/mL (≈ 38.7 µM) throughout.
As to `O=C(O)c1cn(C2CC2)c2cc(N3CCNCC3)c(F)cc2c1=O` [CIPROFLOXACIN], the MIC in the test with Pseudomonas aeruginosa [16] amounted to 0.1 µg/mL (≈ 0.302 µM); against Pseudomonas aeruginosa [17], 0.05 µg/mL (≈ 0.151 µM); against Pseudomonas aeruginosa [18], 0.05 µg/mL (≈ 0.151 µM); against Pseudomonas aeruginosa [19] it was 0.2 µg/mL (≈ 0.604 µM); against Pseudomonas aeruginosa [20] it was 0.1 µg/mL (≈ 0.302 µM); with Pseudomonas aeruginosa [21], 0.1 µg/mL (≈ 0.302 µM). The MIC was 0.1 µg/mL (≈ 0.302 µM) in the test on Pseudomonas aeruginosa [22]; 0.1 µg/mL (≈ 0.302 µM) against Pseudomonas aeruginosa [23]; 0.1 µg/mL (≈ 0.302 µM) in the test on Pseudomonas aeruginosa [24]; 0.1 µg/mL (≈ 0.302 µM) against Pseudomonas aeruginosa [25]; 0.8 µg/mL (≈ 2.41 µM) in the test with Pseudomonas aeruginosa [26]; 0.05 µg/mL (≈ 0.151 µM) against Pseudomonas aeruginosa [27]. Besides, the minimum inhibitory concentration (MIC) against Pseudomonas aeruginosa [28], in the test with Pseudomonas aeruginosa [29] and with Pseudomonas aeruginosa [30] was 0.1 µg/mL (≈ 0.302 µM) in each case.
As for `NC[C@H]1O[C@H](O[C@H]2[C@H](O)[C@@H](O[C@H]3O[C@H](CO)[C@@H](O)[C@H](N)[C@H]3O)[C@H](N)C[C@@H]2N)[C@H](N)C[C@@H]1O` [TOBRAMYCIN], the MIC is 0.2 µg/mL (≈ 0.428 µM) against Pseudomonas aeruginosa [16]; 0.4 µg/mL (≈ 0.856 µM) with Pseudomonas aeruginosa [17]; 0.4 µg/mL (≈ 0.856 µM) against Pseudomonas aeruginosa [18]; 0.4 µg/mL (≈ 0.856 µM) against Pseudomonas aeruginosa [19]; 0.4 µg/mL (≈ 0.856 µM) in the test with Pseudomonas aeruginosa [20]; 0.2 µg/mL (≈ 0.428 µM) against Pseudomonas aeruginosa [21]. In addition, the MIC against Pseudomonas aeruginosa [22] was determined as 0.4 µg/mL (≈ 0.856 µM); against Pseudomonas aeruginosa [23], 0.2 µg/mL (≈ 0.428 µM); against Pseudomonas aeruginosa [24], 0.4 µg/mL (≈ 0.856 µM); in the test with Pseudomonas aeruginosa [25] it was 0.2 µg/mL (≈ 0.428 µM); with Pseudomonas aeruginosa [26], 0.2 µg/mL (≈ 0.428 µM); in the test on Pseudomonas aeruginosa [27], 0.4 µg/mL (≈ 0.856 µM). Moreover, the MIC with Pseudomonas aeruginosa [28] was 0.4 µg/mL (≈ 0.856 µM); against Pseudomonas aeruginosa [29], 0.2 µg/mL (≈ 0.428 µM); against Pseudomonas aeruginosa [30], 0.2 µg/mL (≈ 0.428 µM).
On to `CCn1cc(C(=O)O)c(=O)c2cc3c(cc21)OCO3` [OXOLINIC ACID], for which the MIC with Pseudomonas aeruginosa [16] was 8 µg/mL (≈ 30.6 µM); against Pseudomonas aeruginosa [17], 8 µg/mL (≈ 30.6 µM); with Pseudomonas aeruginosa [18], 4 µg/mL (≈ 15.3 µM); in the test on Pseudomonas aeruginosa [19], 16 µg/mL (≈ 61.2 µM); in the test with Pseudomonas aeruginosa [20], 8 µg/mL (≈ 30.6 µM); with Pseudomonas aeruginosa [21], 4 µg/mL (≈ 15.3 µM). In addition, the MIC in the test with Pseudomonas aeruginosa [22] came to 8 µg/mL (≈ 30.6 µM); with Pseudomonas aeruginosa [23] it was 8 µg/mL (≈ 30.6 µM); with Pseudomonas aeruginosa [24], 8 µg/mL (≈ 30.6 µM); against Pseudomonas aeruginosa [25], 8 µg/mL (≈ 30.6 µM); against Pseudomonas aeruginosa [26], 64 µg/mL (≈ 245 µM); with Pseudomonas aeruginosa [27], 4 µg/mL (≈ 15.3 µM). Besides, the MIC in the test with Pseudomonas aeruginosa [28] is 4 µg/mL (≈ 15.3 µM); in the test with Pseudomonas aeruginosa [29], 4 µg/mL (≈ 15.3 µM); with Pseudomonas aeruginosa [30] it was 8 µg/mL (≈ 30.6 µM).
Regarding `C[C@@H](O)[C@H]1C(=O)N2C(C(=O)O)=C(S[C@@H]3CN[C@H](C(=O)N(C)C)C3)[C@H](C)[C@H]12` [MEROPENEM], the MIC in the test with Pseudomonas aeruginosa [1] is 0.25 µg/mL (≈ 0.652 µM); against Pseudomonas aeruginosa [2], 0.25 µg/mL (≈ 0.652 µM); in the test with Pseudomonas aeruginosa [3], 0.19 µg/mL (≈ 0.495 µM); against Pseudomonas aeruginosa [4] it was 0.38 µg/mL (≈ 0.991 µM); in the test on Pseudomonas aeruginosa [5], 0.38 µg/mL (≈ 0.991 µM); in the test on Pseudomonas aeruginosa [6], 0.25 µg/mL (≈ 0.652 µM). For the same compound, the MIC came out at 0.25 µg/mL (≈ 0.652 µM) against Pseudomonas aeruginosa [7]; 0.38 µg/mL (≈ 0.991 µM) in the test with Pseudomonas aeruginosa [8]; 0.38 µg/mL (≈ 0.991 µM) against Pseudomonas aeruginosa [9]; 0.25 µg/mL (≈ 0.652 µM) with Pseudomonas aeruginosa [10]; 0.25 µg/mL (≈ 0.652 µM) against Pseudomonas aeruginosa [11]; 0.25 µg/mL (≈ 0.652 µM) in the test on Pseudomonas aeruginosa [12]. The MIC in the test on Pseudomonas aeruginosa [13] stood at 0.38 µg/mL (≈ 0.991 µM); against Pseudomonas aeruginosa [14], 0.5 µg/mL (≈ 1.3 µM); in the test with Pseudomonas aeruginosa [15], 0.38 µg/mL (≈ 0.991 µM).

The values are drawn from ChEMBL document CHEMBL1275522, “Antimicrobial studies with the Pseudomonas aeruginosa two-allele library require caution” (2008).
